Results from patent US5256686A, “Phenylalkan(en)oic acid” (Ono Pharmaceutical Co., Ltd., priority 1989, dated 1993).

Target: T1, human PMNL LTB4 receptor (Homo sapiens, UniProt Q15722)
T1 construct: endogenous in cells; host or cells: human polymorphonuclear leukocytes (PMNL), intact cells
Test: Binding affinity of 3H-LTB4 antagonist to human PMNL LTB4 receptor (inhibition of specific 3H-LTB4 binding)
Settings: 1 nM 3H-LTB4, human PMNLs, 4° C., 20 min
Description: Human PMNLS (1×10^7 cells) were incubated with 1 nM ^3 H-LTB4 in Hanks balanced salt solution (1 ml) at 4° C. for 20 min. in the presence or absence of increasing concentrations of unlabeled LTB4 or various compounds. Free ^3 H-LTB4 was separated from PMNLs-bound ligands by vacuum filteration through Whatman GF/B or C glass fiber filters. The filters were then washed rapidly 4 times with 2.5 ml of the ice-cold phosphate buffered saline. The radioactivity retained in the filter was determined by liquid scintillation counting. Specific binding was defined as the difference between total binding and binding in the presence of 3 μM LTB4 (nonspecific binding). The inhibitory effect of specific ^3 H-LTB4 binding was calculated from the following equation.
The percentage of inhibition (%)=100-(B1 /B0 ×100)
B1 : specific ^3 H-LTB4 binding in presence of antagonist
B0 : specific ^3 H-LTB4 binding in absence of antagonist

T1 sequence (Q15722 whole entry): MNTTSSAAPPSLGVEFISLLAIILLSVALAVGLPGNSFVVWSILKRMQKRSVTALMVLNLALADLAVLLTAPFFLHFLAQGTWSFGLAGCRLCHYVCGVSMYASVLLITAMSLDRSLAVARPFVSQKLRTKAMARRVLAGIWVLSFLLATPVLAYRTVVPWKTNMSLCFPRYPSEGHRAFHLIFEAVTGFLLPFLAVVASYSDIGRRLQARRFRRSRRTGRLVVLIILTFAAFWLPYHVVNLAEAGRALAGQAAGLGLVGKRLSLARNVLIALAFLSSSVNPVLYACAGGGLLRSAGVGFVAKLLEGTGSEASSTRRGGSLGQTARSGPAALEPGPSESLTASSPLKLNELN

SMILES	IC50
CCCCCCCCCCCCOc1ccc(NC(=O)CCCC(=O)N(C)C)cc1CCC(=O)O [1 (c), 3-[1-n-dodecyloxy-4-(4-dimethylaminocarbonylbutanamido)benzen-2-yl]propionic acid]	1 µM
CCCCCOc1ccc(/C=C/CCCCOc2ccc(NC(=O)CCCC(=O)N(C)C)cc2CCC(=O)O)cc1 [1 (i), 3-[1-[6-(4-n-pentyloxyphenyl)hex-5E-enyl]oxy-4-(4-dimethylaminocarbonylbutanamido)benzen-2-yl]propionic acid]	0.4 µM
COc1ccc(CCCCCCOc2ccc(NC(=O)CCCC(=O)N(C)C)cc2CCC(=O)O)cc1 [1 (j), 3-[1-[6-(4-methoxyphenyl)-n-hexyl]oxy-4-(4-dimethylaminocarbonylbutanamido)benzen-2-yl]propionic acid]	0.2 µM
COc1cccc(/C=C/CCCCOc2ccc(NC(=O)CCCC(=O)N(C)C)cc2CCC(=O)O)c1 [1 (m), 3-[1-[6-(3-methoxyphenyl)hex-5E-enyl]oxy-4-(4-dimethylaminocarbonylbutanamido)benzen-2-yl]propionic acid]	0.49 µM
CSc1ccc(/C=C/CCCCOc2ccc(NC(=O)CCCC(=O)N(C)C)cc2CCC(=O)O)cc1 [1 (q), 3-[1-[6-(4-methylthiophenyl)hex-5E-enyl]oxy-4-(4-dimethylaminocarbonylbutanamido)benzen-2-yl]propionic acid]	0.05 µM
COc1ccc(/C=C/CCCCOc2ccc(NC(=O)CCCC(=O)N(C)C)cc2CCC(=O)O)cc1OC [1 (r), 3-[1-[6-(3,4-dimethoxyphenyl)hex-5E-enyl]oxy-4-(4-dimethylaminocarbonylbutanamido)benzen-2-yl]propionic acid]	1.1 µM
Cc1ccc(/C=C/CCCCOc2ccc(NC(=O)CCCC(=O)N(C)C)cc2CCC(=O)O)cc1 [1 (s), 3-[1-[6-(4-methylphenyl)hex-5E-enyl]oxy-4-(4-dimethylaminocarbonylbutanamido)benzen-2-yl]propionic acid]	0.17 µM
CN(C)C(=O)CCCC(=O)Nc1ccc(OCCCC/C=C/c2ccc(Cl)cc2)c(CCC(=O)O)c1 [1 (t), 3-[1-[6-(4-chlorophenyl)hex-5E-enyl]oxy-4-(4-dimethylaminocarbonylbutanamido)benzen-2-yl]propionic acid]	0.22 µM
CCCCCC(O)/C=C/CCCCOc1ccc(NC(=O)CCCC(=O)N(C)C)cc1CCC(=O)O (stereo not shown) [5 (b), 3-[1-(5E-7-hydroxydodecenyl)oxy-4-dimethylaminocarbonylbutanamidobenzen-2-yl]propionic acid]	0.3 µM
COc1ccc(CCC(O)/C=C/CCCCOc2ccc(NC(=O)CCCC(=O)N(C)C)cc2CCC(=O)O)cc1 (stereo not shown) [5 (c), 3-[1-[5E-7-hydroxy-9-(4-methoxyphenyl)nonenyl]oxy-4-dimethylaminocarbonylbutanamidobenzen-2-yl]propionic acid]	0.7 µM
CN(C)C(=O)CCCC(=O)Nc1ccc(OCCCC/C=C/C(O)C2CCCCC2)c(CCC(=O)O)c1 (stereo not shown) [5 (e), 3-[1-(5E-7-hydroxy-7-cyclohexylheptenyl)oxy-4-dimethylaminocarbonylbutanamidobenzen-2-yl]propionic acid]	0.35 µM
COc1ccc(CCCCCCOc2cccc(OCCCCC(=O)N(C)C)c2CCC(=O)O)cc1 [30 (b), 3-[1-[6-(4-methoxyphenyl)hexyl]oxy-3-(4-dimethylaminocarbonylbutyl)oxybenzen-2-yl]propionic acid]	0.15 µM
CCCCCCCCC(O)/C=C/CCCCOc1ccc(NC(=O)CCCC(=O)N(C)C)cc1CCC(=O)O (stereo not shown) [Example 5, 3-[1-(5E-7-hydroxypentadecenyl)oxy-4-(4-dimethylaminocarbonylbutanamido)benzen-2-yl]propionic acid]	0.02 µM
COc1ccc(CCCCCCOc2ccc(NS(=O)(=O)c3ccc(C)cc3)cc2CCC(=O)O)cc1 [Example 6, 3-[1-[6-(4-methoxyphenyl)hexyl]oxy-4-(4-methylphenyl)sulfonylaminobenzen-2-yl]propionic acid]	0.08 µM

More lines, now with the values ahead:

IC50	SMILES
0.08 µM	CCCOc1ccc(/C=C/CCCCOc2ccc(NC(=O)CCCC(=O)N(C)C)cc2CCC(=O)O)cc1 [1 (e), 3-[1-[6-(4-n-propoxyphenyl)hex-5E-enyl]oxy-4-(4-dimethylaminocarbonylbutanamido)benzen-2-yl]propionic acid]
0.05 µM	C=CCOc1ccc(/C=C/CCCCOc2ccc(NC(=O)CCCC(=O)N(C)C)cc2CCC(=O)O)cc1 [1 (f), 3-[1-[6-[4-(2-propenyl)oxyphenyl]hex-5E-enyl]oxy-4-(4-dimethylaminocarbonylbutanamido)benzen-2-yl]propionic acid]
0.07 µM	COc1ccc(/C=C/CCCCOc2ccc(NC(=O)CCCC(=O)N3CCc4ccccc43)cc2CCC(=O)O)cc1 [1 (n), 3-[1-[6-(4-methoxyphenyl)hex-5E-enyl]oxy-4-[4-(1-indolinyl)carbonylbutanamido]benzen-2-yl]propionic acid]
0.08 µM	COc1ccc(/C=C/CCCCOc2ccc(NC(=O)c3cccc(C(=O)N(C)C)c3)cc2CCC(=O)O)cc1 [1 (u), 3-[1-[6-(4-methoxyphenyl)hex-5E-enyl]oxy-4-(3-dimethylaminocarbonylbenzamido)benzen-2-yl]propionic acid]
0.2 µM	COc1ccc(/C=C/CCCCOc2ccc(NC(=O)CCCC(=O)O)cc2/C=C/C(=O)O)cc1 [2 (a), 3-[1-[6-(4-methoxyphenyl)hex-5E-enyl]oxy-4-(4-carboxylbutanamido)benzen-2-yl]-E-acrylic acid]
0.2 µM	COc1ccc(/C=C/CCCCOc2ccc(NC(=O)c3ccccc3)cc2CCC(=O)O)cc1 [3 (a), 3-[1-[6-(4-methxoyphenyl)hex-5E-enyl]oxy-4-benzamidobenzen-2-yl]propionic acid]
0.06 µM	COc1ccc(/C=C/CCCCOc2ccc(NC(=O)c3cccc(CO)c3)cc2CCC(=O)O)cc1 [4 (b), 3-[1-[6-(4-methoxyphenyl)hex-5E-enyl]oxy-4-(3-hydroxymethylbenzamido)benzen-2yl]propionic acid]
0.03 µM	COc1ccc(/C=C/CCCCOc2ccc(NS(C)(=O)=O)cc2CCC(=O)O)cc1 [6 (b), 3-[1-[6-(4-methoxyphenyl)hex-5E-enyl]oxy-4-methylsulfonylaminobenzen-2-yl]propionic acid]
0.2 µM	COc1ccc(/C=C/CCCCOc2ccc(NS(=O)(=O)Cc3ccccc3)cc2CCC(=O)O)cc1 [6 (c), 3-[1-[6-(4-methoxyphenyl)hex-5E-enyl]oxy-4-benzylsulfonylaminobenzen-2-yl]propionic acid]
0.03 µM	COc1ccc(/C=C/CCCCOc2ccc(NS(=O)(=O)CCCC(=O)N(C)C)cc2CCC(=O)O)cc1 [7 (a), 3-[1-[6-(4-methoxyphenyl)hex-5E-enyl]oxy-4-(3-dimethylaminocarbonyl-n-propyl)sulfonylaminobenzen-2-yl]propionic acid]
1 µM	COc1ccc(/C=C/CCCCOc2ccc(N(S(=O)(=O)Cc3ccccc3)S(=O)(=O)Cc3ccccc3)cc2CCC(=O)O)cc1 [10 (c), 3-[1-[6-(4-methoxyphenyl)hex-5E-enyl]oxy-4-bis(benzylsulfonyl)aminobenzen-2-yl]propionic acid]
0.006 µM	COc1ccc(/C=C/CCCCOc2ccc(N3C(=O)CCS3(=O)=O)cc2CCC(=O)O)cc1 [12 (b), 3-[1-[6-(4-methoxyphenyl)hex-5E-enyl]oxy-4-(isothiazolidin-1,1,3-trione-2-yl)benzen-2-yl]propionic acid]
0.13 µM	COc1ccc(/C=C/CCCCOc2ccc(NC(=O)CCCC(=O)N3CCOCC3)cc2CCC(=O)O)cc1 [Example 1, 3-[1-[6-(4-methoxyphenyl)hex-5E-enyl]oxy-4-(5-oxo-5-morpholinopentanamido)benzen-2-yl]propionic acid]
0.04 µM	COc1ccc(/C=C/CCCCOc2ccc(NC(=O)CCCC(=O)O)cc2CCC(=O)O)cc1 [Example 2, 3-[1-[6-(4-methoxyphenyl)hex-5E-enyl]oxy-4-(4-carboxylbutanamido)benzen-2-yl]propionic acid]
0.17 µM	CCCCCCC(=O)Nc1ccc(OCCCC/C=C/c2ccc(OC)cc2)c(CCC(=O)O)c1 [Example 3, 3-[1-[6-(4-methoxyphenyl)hex-5E-enyl]oxy-4-heptanamidobenzen-2-yl]propionicacid]
0.09 µM	COc1ccc(/C=C/CCCCOc2ccc(NC(=O)CCCCO)cc2CCC(=O)O)cc1 [Example 4, 3-[1-[6-(4-methoxyphenyl)hex-5E-enyl]oxy-4-(5-hydroxypentanamido)benzen-2-yl]propionic acid]
0.01 µM	COc1ccc(/C=C/CCCCOc2ccc(N(C(C)=O)S(C)(=O)=O)cc2CCC(=O)O)cc1 [Example 9, 3-[1-[6-(4-methoxyphenyl)hex-5E-enyl]oxy-4-(N-acetyl-N-mesyl)aminobenzen-2-yl]propionic acid]
0.013 µM	COc1ccc(/C=C/CCCCOc2ccc(N(S(C)(=O)=O)S(C)(=O)=O)cc2CCC(=O)O)cc1 [Example 10, 3-[1-[6-(4-methoxyphenyl)hex-5E-enyl]oxy-4-dimesylaminobenzen-2-yl]propionic acid]
0.045 µM	COc1ccc(/C=C/CCCCOc2ccc(N3C(=O)c4ccccc4C3=O)cc2CCC(=O)O)cc1 [Example 11, 3-[1-[6-(4-methoxyphenyl)hex-5E-enyl]oxy-4-phthalimidobenzen-2-yl]propionicacid]
0.007 µM	COc1ccc(/C=C/CCCCOc2ccc(N3C(=O)CCCS3(=O)=O)cc2CCC(=O)O)cc1 [Example 12, 3-[1-[6-(4-methoxyphenyl)hex-5E-enyl]oxy-4-(perhydro-1,2-thiazin-1,1,3-trione-2-yl]benzen-2-yl]propionic acid]
